Test results from article PMC11882969 (Nature Communications, 2025).
Values joined by “and” are separate entries in the source; they are usually repeats but may differ in a detail not shown here. Equal entries are not always repeated.

Legend:
[1] = Dynamic light scattering, colloidal aggregation; assay type: physicochemical; details: Log[compound, replicates, sheet FigS2b
Experimental: Samples were prepared as 8-point half-log dilutions in filtered 50 mM KPi buffer, pH 7.0 with final DMSO concentration at 1% (v/v). Colloidal particle formation was measured using DynaPro Plate Reader II (Wyatt Technologies). All compounds were screened in triplicate.

Malate dehydrogenase = assay: Enzyme inhibition counter-screen, MDH; assay type: biochemical; details: Rep 1-3 mean; sheet FigureS2c
Experimental: Enzyme inhibition assays to test for colloidal inhibition were performed at room temperature using CLARIOstar Plate Reader (BMG Labtech). Samples were prepared in 50 mM KPi buffer, pH 7.0 with final DMSO concentration at 1% (v/v). Compounds were incubated with 2 nM AmpC β-lactamase (AmpC) or Malate dehydrogenase (MDH) for 5 min. AmpC reactions were initiated by the addition of 50 μM CENTA chromogenic substrate (219475, Calbiochem). […] MDH reactions were initiated by the addition of 200 μM nicotinamide adenine dinucleotide (NADH) (54839, Sigma Aldrich) and 200 μM oxaloacetic acid (324427, Sigma Aldrich). The change in absorbance was monitored at 340 nm for 60 sec. Initial rates were divided by the DMSO control rate to determine % enzyme activity. Each compound was screened at 100μM in triplicate for three independent experiments, if enzyme inhibition greater than 30% was observed, 8-point half-log concentrations were performed in triplicate for three independent experiments. Data was analyzed using GraphPad Prism 9.1.

In the case of `Cn1nc(-c2nnc(C(C)(C)Oc3ccc(Cl)cc3)o2)c2ccccc2c1=O` [‘0450], the DLS scattering intensity ([1]; uM] 0) is reported as 721249 and 1482870 and 678793, the DLS scattering intensity ([1]; uM] 0.5) is reported as 820738 and 723783 and 889231 and the DLS scattering intensity ([1]; uM] 1) is reported as 2818066 and 935392 and 954008. For the same molecule, the DLS scattering intensity ([1]; uM] 1.49996) was 37596765 and 31006318 and 24739178, the DLS scattering intensity ([1]; uM] 2) was 93917555 and 151664189 and 85385693 and the DLS scattering intensity ([1]; uM] -0.500011) was 759174 and 1269323 and 983915. The DLS scattering intensity ([1]; uM] -1) was 623247 and 1064137 and 868483, the DLS scattering intensity ([1]; uM] -1.5) was 703949 and 596678 and 546381 and the “MDH activity (DMSO = 100), replicate means” value (Malate dehydrogenase) was 124.427 and 98.8422 and 101.682.
